Assay results taken from PubChem BioAssay AID248 (DTP/NCI, 2004).
Values joined by “and” are separate entries in the source; they are usually repeats but may differ in a detail not shown here. Equal entries are not always repeated. Inconclusive results and toxic doses are left out.

System: L1210 leukemia ip in BDF1 mice, survival T/C
Test: NCI In Vivo Anticancer Drug Screen. Data for tumor model L1210 Leukemia (intraperitoneal) in B6D2F1 (BDF1) mice
Details: endpoint: mean survival time, higher = longer survival
Procedure, shortened: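 Value reflects the ratio of survival in compound-treated mice to survival in vehicle-treated controls, with both groups carrying the same transplanted tumor.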

[1] = dose: 100.0 mg/kg/injection, schedule: Q01DX001 (ip), vehicle: carboxymethylcellulose (CMC)
[2] = dose: 200.0 mg/kg/injection, schedule: Q01DX001 (ip), vehicle: carboxymethylcellulose (CMC)
[3] = dose: 400.0 mg/kg/injection, schedule: Q01DX001 (ip), vehicle: carboxymethylcellulose (CMC)
[4] = dose: 100.0 mg/kg/injection, schedule: Q01DX009 (ip), vehicle: saline with Tween-80
[5] = dose: 100.0 mg/kg/injection, schedule: Q04DX003 (ip), vehicle: saline with Tween-80
[6] = dose: 200.0 mg/kg/injection, schedule: Q01DX009 (ip), vehicle: saline with Tween-80
[7] = dose: 200.0 mg/kg/injection, schedule: Q04DX003 (ip), vehicle: saline with Tween-80
[8] = dose: 100.0 mg/kg/injection, schedule: Q01DX001 (ip), vehicle: Klucel (hydroxypropylcellulose) (HPC)
[9] = dose: 200.0 mg/kg/injection, schedule: Q01DX001 (ip), vehicle: Klucel (hydroxypropylcellulose) (HPC)
[10] = dose: 100.0 mg/kg/injection, schedule: Q04DX003 (ip), vehicle: saline
[11] = dose: 200.0 mg/kg/injection, schedule: Q04DX003 (ip), vehicle: saline
[12] = dose: 400.0 mg/kg/injection, schedule: Q04DX003 (ip), vehicle: saline
[13] = dose: 400.0 mg/kg/injection, schedule: Q01DX001 (ip), vehicle: Klucel (hydroxypropylcellulose) (HPC)
[14] = dose: 100.0 mg/kg/injection, schedule: Q04DX002 (ip), vehicle: Klucel (hydroxypropylcellulose) (HPC)
[15] = dose: 200.0 mg/kg/injection, schedule: Q04DX002 (ip), vehicle: Klucel (hydroxypropylcellulose) (HPC)
[16] = dose: 400.0 mg/kg/injection, schedule: Q04DX002 (ip), vehicle: Klucel (hydroxypropylcellulose) (HPC)
[17] = dose: 400.0 mg/kg/injection, schedule: Q04DX003 (ip), vehicle: saline with Tween-80

For `CCc1ccc(N=Nc2c(F)c(F)c(NC(C)=O)c(F)c2F)cc1`, the T/C [1] was 102 % of control, the T/C [2] was 91 % of control and the T/C [3] was 91 % of control.
`Cc1c(Cl)cccc1NC(=O)Nc1nccs1` was tested, and the T/C (dose: 50.0 mg/kg/injection, schedule: Q04DX003 (ip), vehicle: saline with Tween-80) was 103 % of control, the T/C [4] was 101 % of control and 104 % of control and the T/C (dose: 100.0 mg/kg/injection, schedule: Q04DX002 (ip), vehicle: saline with Tween-80) was 100 % of control and 103 % of control. The T/C [5] was 101 % of control, the T/C [6] was 100 % of control and the T/C (dose: 200.0 mg/kg/injection, schedule: Q04DX002 (ip), vehicle: saline with Tween-80) was 95 % of control and 96 % of control. For the same compound, the T/C [7] was 114 % of control and the T/C (dose: 400.0 mg/kg/injection, schedule: Q04DX002 (ip), vehicle: saline with Tween-80) was 109 % of control.
For `CCCC(C)Cc1ccc(C(=O)O)cc1` (configuration not stated), the T/C (dose: 100.0 mg/kg/injection, schedule: Q01DX009 (ip), vehicle: Klucel (hydroxypropylcellulose) (HPC)) was 95 % of control, the T/C (dose: 100.0 mg/kg/injection, schedule: Q04DX003 (ip), vehicle: Klucel (hydroxypropylcellulose) (HPC)) was 97 % of control and the T/C (dose: 200.0 mg/kg/injection, schedule: Q01DX009 (ip), vehicle: Klucel (hydroxypropylcellulose) (HPC)) was 104 % of control. For the same compound, the T/C (dose: 200.0 mg/kg/injection, schedule: Q04DX003 (ip), vehicle: Klucel (hydroxypropylcellulose) (HPC)) was 103 % of control and the T/C (dose: 400.0 mg/kg/injection, schedule: Q04DX003 (ip), vehicle: Klucel (hydroxypropylcellulose) (HPC)) was 107 % of control.
For `NC(=O)c1cn[nH]c1NC(=O)/C=C/c1cccc([N+](=O)[O-])c1`, the T/C (dose: 50.0 mg/kg/injection, schedule: Q01DX001 (ip), vehicle: Klucel (hydroxypropylcellulose) (HPC)) was 92 % of control, the T/C [8] was 96 % of control and the T/C [9] was 91 % of control.
`O=C1CNC(=O)CN1` was tested, and the T/C (dose: 75.0 mg/kg/injection, schedule: Q01DX009 (ip), vehicle: saline) was 94 % of control, the T/C [10] was 103 % of control and the T/C (dose: 150.0 mg/kg/injection, schedule: Q01DX009 (ip), vehicle: saline) was 92 % of control. The T/C [11] was 106 % of control, the T/C (dose: 300.0 mg/kg/injection, schedule: Q01DX009 (ip), vehicle: saline) was 94 % of control and the T/C [12] was 100 % of control.
With `CCC(C)Nc1ccc(NC(=S)Nc2ccc(NC(C)CC)cc2)cc1` (configuration not stated) the T/C (dose: 100.0 mg/kg/injection, schedule: Q04DX002 (ip), vehicle: other) was 89 % of control, the T/C (dose: 200.0 mg/kg/injection, schedule: Q04DX002 (ip), vehicle: other) was 86 % of control and the T/C (dose: 400.0 mg/kg/injection, schedule: Q04DX002 (ip), vehicle: other) was 86 % of control.
With `COC1CCC2(C)C(=CCC3C2CCC2(C)C(C(C)CCCC(C)C)CCC32)C1` (configuration not stated) the T/C [8] was 97 % of control, the T/C [9] was 94 % of control and the T/C [13] was 94 % of control.
`c1ccc2c(c1)ccc1[nH]c3c(c12)CCCC3` was tested, and the T/C [1] was 95 % of control, the T/C [2] was 90 % of control and the T/C [3] was 97 % of control.
With `CC1c2c(c(-c3ccccc3)c3ccccc3c2-c2ccccc2)S1(=O)=O` (configuration not stated) the T/C (dose: 25.0 mg/kg/injection, schedule: Q04DX002 (ip), vehicle: Klucel (hydroxypropylcellulose) (HPC)) was 99 % of control, the T/C (dose: 50.0 mg/kg/injection, schedule: Q04DX002 (ip), vehicle: Klucel (hydroxypropylcellulose) (HPC)) was 96 % of control and the T/C [14] was 94 % of control and 99 % of control and 111 % of control. For the same compound, the T/C [15] was 94 % of control and 99 % of control and 114 % of control and the T/C [16] was 99 % of control and 111 % of control.
For `CCCCC1C(=O)OC(C(C)C(O)CCCN=C(N)N)C(C)C=C(C)CCCCC(O)CC(O)CC(O)CC(O)CC(O)C(OC2OC(CO)C(O)C2O)C=C(C)C(O)CCCC(O)CCCC(O)CCC(C)C1O` (configuration not stated), the T/C (dose: 0.71 mg/kg/injection, schedule: Q01DX Z (ip), vehicle: carboxymethylcellulose (CMC)) was 96 % of control.
With `CCCCCCCCCCCCCCCCNC(=S)N/N=C/C(C)=N/NC(=S)NCCCCCCCCCCCCCCCC` the T/C (dose: 15.0 mg/kg/injection, schedule: Q01DX Z (ip), vehicle: carboxymethylcellulose (CMC)) was 101 % of control, the T/C (dose: 30.0 mg/kg/injection, schedule: Q01DX Z (ip), vehicle: carboxymethylcellulose (CMC)) was 107 % of control and the T/C (dose: 60.0 mg/kg/injection, schedule: Q01DX Z (ip), vehicle: carboxymethylcellulose (CMC)) was 100 % of control and 104 % of control. For the same compound, the T/C (dose: 120.0 mg/kg/injection, schedule: Q01DX Z (ip), vehicle: carboxymethylcellulose (CMC)) was 95 % of control and 98 % of control and the T/C (dose: 240.0 mg/kg/injection, schedule: Q01DX Z (ip), vehicle: carboxymethylcellulose (CMC)) was 100 % of control.
For `O=C1c2ccccc2CC(Br)c2ccccc21` (configuration not stated), the T/C [8] was 95 % of control, the T/C [9] was 100 % of control and the T/C [13] was 100 % of control.
With `C#CC(C)(C)OCC(CCl)OC(N)=O` (configuration not stated) the T/C (dose: 50.0 mg/kg/injection, schedule: Q04DX003 (ip), vehicle: saline) was 98 % of control, the T/C [10] was 96 % of control and the T/C [11] was 101 % of control. For the same compound, the T/C [12] was 104 % of control.
For `O=c1[nH]c(Cl)nc2c(Cl)c(C(Cl)(Cl)Cl)nn12`, the T/C [4] was 95 % of control, the T/C [5] was 101 % of control and the T/C [6] was 93 % of control. The T/C [7] was 94 % of control and the T/C [17] was 92 % of control.
`O=S(=O)(Cc1ccccc1)C(I)c1ccccc1` (configuration not stated) was tested, and the T/C [14] was 108 % of control, the T/C [15] was 122 % of control and the T/C [16] was 105 % of control.
With `Nc1ccc(SS(N)(=O)=O)cc1` the T/C (dose: 100.0 mg/kg/injection, schedule: Q01DX001 (ip), vehicle: saline) was 98 % of control and the T/C (dose: 200.0 mg/kg/injection, schedule: Q01DX001 (ip), vehicle: saline) was 98 % of control.
`CCC(N)Cc1ccc(OC)c(OC)c1` (configuration not stated) was tested, and the T/C (dose: 100.0 mg/kg/injection, schedule: Q01DX009 (ip), vehicle: saline) was 98 % of control, the T/C [10] was 93 % of control and the T/C (dose: 200.0 mg/kg/injection, schedule: Q01DX009 (ip), vehicle: saline) was 98 % of control. The T/C [11] was 97 % of control.
For `CN=C(N)c1ccc(NC(=O)c2ccc(C(=O)Nc3ccc(C(N)=NC)cc3)c(Cl)c2)cc1`, the T/C (dose: 1.88 mg/kg/injection, schedule: Q01DX Z (ip), vehicle: saline) was 117 % of control, the T/C (dose: 7.5 mg/kg/injection, schedule: Q01DX Z (ip), vehicle: saline) was 252 % of control and the T/C (dose: 15.0 mg/kg/injection, schedule: Q01DX Z (ip), vehicle: saline) was 183 % of control. The T/C (dose: 60.0 mg/kg/injection, schedule: Q01DX Z (oral), vehicle: saline) was 105 % of control, the T/C (dose: 62.5 mg/kg/injection, schedule: Q## X010 (oral), vehicle: saline) was 102 % of control and the T/C (dose: 120.0 mg/kg/injection, schedule: Q01DX Z (oral), vehicle: saline) was 102 % of control. For the same compound, the T/C (dose: 125.0 mg/kg/injection, schedule: Q## X010 (oral), vehicle: saline) was 98 % of control, the T/C (dose: 240.0 mg/kg/injection, schedule: Q01DX Z (oral), vehicle: saline) was 103 % of control and the T/C (dose: 500.0 mg/kg/injection, schedule: Q## X010 (oral), vehicle: saline) was 102 % of control.
`CCOc1ccc(-n2c(=O)c(N=Nc3ccccc3C)c(O)n(-c3ccc(C)cc3)c2=S)cc1` was tested, and the T/C (dose: 37.5 mg/kg/injection, schedule: Q01DX001 (ip), vehicle: Klucel (hydroxypropylcellulose) (HPC)) was 92 % of control, the T/C (dose: 75.0 mg/kg/injection, schedule: Q01DX001 (ip), vehicle: Klucel (hydroxypropylcellulose) (HPC)) was 101 % of control and the T/C (dose: 150.0 mg/kg/injection, schedule: Q01DX001 (ip), vehicle: Klucel (hydroxypropylcellulose) (HPC)) was 97 % of control.
With `Cc1cc(OC(=O)Nc2cccc(Cl)c2C)ccc1Cl` the T/C [4] was 99 % of control, the T/C [5] was 93 % of control and the T/C [6] was 99 % of control. The T/C [7] was 91 % of control, the T/C (dose: 400.0 mg/kg/injection, schedule: Q01DX009 (ip), vehicle: saline with Tween-80) was 89 % of control and the T/C [17] was 98 % of control.
For `O=C(NCc1ccco1)Nc1ccccc1Cl`, the T/C (dose: 155.0 mg/kg/injection, schedule: Q01DX Z (ip), vehicle: methylcellulose (MC)) was 100 % of control, the T/C (dose: 233.0 mg/kg/injection, schedule: Q01DX Z (ip), vehicle: methylcellulose (MC)) was 100 % of control and the T/C (dose: 350.0 mg/kg/injection, schedule: Q01DX Z (ip), vehicle: methylcellulose (MC)) was 94 % of control.
